Test results taken from PMC11988454, “Discovery of synthetic small molecules targeting the central regulator of Salmonella pathogenicity” (Science Advances, 2025).

Legend:
male ICR mice = assay: Maximum tolerated dose (MTD) experiment, oral
Protocol: C26 was formulated in 5% Tween 20 (v/v), 50% lecithin (from soy bean: 40 mg in 800 μl of distilled water), and 45% PBS at 0.6, 2, and 6 mg/ml for oral administration. A dosing volume of 5 ml/kg was applied. C26 was administered orally to groups of three male Institute of Cancer Research (ICR) mice (23 ± 3 g) at an initiating dose of 3 mg/kg in an MTD setup. The animals received an initial dose of 3 mg/kg. If the animals survived for 72 hours, the group (10 mg/kg) was tested. If the animals survived for 72 additional hours, the group (30 mg/kg) was tested. Experiments were performed by Pharmacology Discovery Services Taiwan Ltd., in general accordance with the “Guide for the Care and Use of Laboratory Animals: Eighth Edition” (National Academies Press, Washington, DC, 2011). The animal care and protocol were reviewed and approved by the Institutional Animal Care and Use Committee (IACUC) at Pharmacology Discovery Services Taiwan Ltd.

[1] = system: S. Typhimurium invasion of MDCK cells; assay: Invasion assay into MDCK cells; assay type: cell-based; conditions: C26 100 μM, MOI 5; DMSO control 6.85
Protocol: MDCK (NBL-2) cells were seeded in a 24-well plate at a density of 10^5 cells per well in 1 ml of MEM (Gibco) and grown for 5 to 6 days, to allow polarization. Cells were washed every 2 days with fresh medium. After 5 days, each well contained ~1.8 × 10^6 MDCK cells. Bacteria were grown as for the invasion assay of HeLa cells and diluted to obtain an MOI of 5. The plate was centrifuged for 3 min at 300g to synchronize the infection and then incubated for 25 min at 37°C and 5% (v/v) CO2 to allow Salmonella invasion into MDCK cells. The quantification of invasiveness was carried out as described above for HeLa cells.

HilC and RtsA = assay: Whole-cell PhilA activation by rhamnose-induced hilC or rtsA in ΔhilD backgrounds; assay type: cell-based, S. Typhimurium; conditions: C26 100 μM, rhamnose 2 mM
Source text: Next, we investigated the selectivity of C26 for HilD using the whole-cell PhilA activation assay. In the absence of HilD, the pool of HilC and RtsA is insufficient to activate the expression of hilA. Therefore, assessing the sensitivity of HilC and RtsA to C26 requires PhilA to be activated in a HilD-independent manner. To create such a condition, we used a plasmid-encoded hilC or rtsA under the control of a rhamnose-inducible promoter.
A whole-cell reporter gene assay was used to quantify HilD transcriptional activity. Strain PhilA-sfGFP and the isogenic ΔhilD PhilA-sfGFP were used for this purpose. Cultures were performed in 1 ml of LB supplemented with 0.3 M NaCl. Compounds at different concentrations or 1% (v/v) DMSO were added to the corresponding tubes. Cultures were incubated at 37°C and 180 rpm for 5 hours. Cells were pelleted, resuspended in 100 μl of PBS, and then transferred into a 96-well black clear-bottom plate (Thermo Fisher Scientific, USA). Fluorescence intensity was measured with a Tecan Spark microplate reader with an excitation wavelength of 485 nm and an emission wavelength of 510 nm. Dose-response curves and IC50 values were calculated using CDD Vault.

HilD = molecular target: T1, HilD (Salmonella typhimurium, UniProt P0CL08); assay: SEC-MALS of HilD; parameters: species or system S. Typhimurium
T1 construct: His6-SUMO (N, cleaved yes); made in house; host or cells: E. coli C41(DE3)
T1 sequence (P0CL08 whole entry): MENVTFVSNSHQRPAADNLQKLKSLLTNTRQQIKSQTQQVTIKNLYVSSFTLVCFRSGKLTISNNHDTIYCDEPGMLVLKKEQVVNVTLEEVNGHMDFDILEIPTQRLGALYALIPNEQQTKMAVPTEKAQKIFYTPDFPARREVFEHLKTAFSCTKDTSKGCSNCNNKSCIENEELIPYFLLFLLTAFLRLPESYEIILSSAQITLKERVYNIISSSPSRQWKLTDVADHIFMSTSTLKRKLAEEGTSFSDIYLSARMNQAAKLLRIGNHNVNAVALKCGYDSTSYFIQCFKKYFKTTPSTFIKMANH
Protocol: SEC-MALS experiments were performed using a Superdex 75 Increase 10/300 GL column (Cytiva) coupled to a miniDAWN Tristar Laser photometer (Wyatt) and a RI-2031 differential refractometer (JASCO). HilD (100 μM) was incubated with 1% (v/v) of either DMSO or C26 (10 mM dissolved in DMSO) for 20 min at r.t. Fifty microliters of HilD samples was loaded onto the SEC column, equilibrated with SEC buffer, and separated using a flow rate of 0.5 ml min^−1. Data analysis was carried out with the ASTRA v7.3.0.18 software (Wyatt).

HilD-HilE heterodimer = HilD-HilE heterodimer (Salmonella typhimurium, UniProt P0CL08); assay: MST dimerization assay HilD-HilE; assay type: binding, S. Typhimurium; conditions: 100 μM compound
HilD-HilE heterodimer, sequence (P0CL08 whole entry, one chain of several): as the sequence (P0CL08 whole entry) above
Protocol: MST measurements for the binding of HilD to HilE were performed as previously described ([39]). In summary, enhanced yellow fluorescent protein (EYFP)-HilD (100 nM) was incubated with 100 μM either oleic acid or C26 [with a final concentration of 1% (v/v) DMSO] for 10 min at r.t. (22° to 25°C) and subsequently mixed 1:1 with varying concentrations of HilE. Samples were incubated together for 10 min at r.t., centrifuged for 5 min, and loaded to standard capillaries (NanoTemper Technologies GmbH, no. MO-K022). MST runs were performed at 25°C on a NanoTemper Monolith NT.115, with an excitation power of 60% and medium MST power. Data were analyzed using the MO.Affinity Analysis v2.3 software, and affinity constants were calculated using the Kd model.

HeLa cells = assay: Cytotoxicity, CellTox Green Cytotoxicity Assay, HeLa; assay type: cell-based; conditions: exposure time 18 h
Protocol: In vitro toxicity of compound C26 was assessed in HeLa cells (ATCC CCL-2) using the ApoTox-Glo Triplex Assay and in macrophages RAW 264.7-LgBiT using the CellTox Green Cytotoxicity Assay (Promega, USA) according to the manufacturer’s instructions. The screening of in vitro toxicity of the compound analogs was performed with the CellTox Green Cytotoxicity Assay (Promega, USA) according to the manufacturer’s instructions. Cells (10^4 cells per well) were seeded into a 96-well plate and incubated for 24 hours at 37°C, 5% (v/v) CO2. Cells were then treated with the compound at different concentrations or 1% (v/v) DMSO in Dulbecco’s modified Eagle’s medium (DMEM) without phenol red at the desired exposure time. Fluorescence intensity was measured with a TECAN Spark microplate reader. Cytotoxicity [relative fluorescence units (RFU)] and viability (RFU) values were plotted to calculate the TC50 using GraphPad Prism 10.1.1.
Compound concentration (µM) […]
in vitro cytotoxicity of C26 and analogs. Cytotoxicity assessed with CellTox™ Green Cytotoxicity Assay with an exposure time of 18 h. N = 3 biological replicates. Data were plotted and TC50 values were generated with GraphPad Prism 10.1.1.
(1 picture or pasted object on this page, not shown here)

CN(CC(=O)NCc1ccc2c(c1)OCO2)Cc1ccc(Br)s1 [C26, N-(benzo[d][1,3]dioxol-5-ylmethyl)-2-{[(5-bromothiophen-2-yl)methyl](methyl)amino}acetamide]
Toxicity (death / test) (male ICR mice; PO 3 mg/kg, 1 h): 0/3
Toxicity (death / test) (male ICR mice; PO 3 mg/kg, 2 h): 0/3
Toxicity (death / test) (male ICR mice; PO 3 mg/kg, 24 h): 0/3
Toxicity (death / test) (male ICR mice; PO 3 mg/kg, 48 h): 0/3
Toxicity (death / test) (male ICR mice; PO 3 mg/kg, 72 h): 0/3
Toxicity (death / test) (male ICR mice; PO 10 mg/kg, 1 h): 0/3
Toxicity (death / test) (male ICR mice; PO 10 mg/kg, 2 h): 0/3
Toxicity (death / test) (male ICR mice; PO 10 mg/kg, 24 h): 0/3
Toxicity (death / test) (male ICR mice; PO 10 mg/kg, 48 h): 0/3
Toxicity (death / test) (male ICR mice; PO 10 mg/kg, 72 h): 0/3
Toxicity (death / test) (male ICR mice; PO 30 mg/kg, 1 h): 0/3
Toxicity (death / test) (male ICR mice; PO 30 mg/kg, 2 h): 0/3
Toxicity (death / test) (male ICR mice; PO 30 mg/kg, 24 h): 0/3
Toxicity (death / test) (male ICR mice; PO 30 mg/kg, 48 h): 0/3
Toxicity (death / test) (male ICR mice; PO 30 mg/kg, 72 h): 0/3
abnormalities at termination (male ICR mice; mouse, in vivo): no notable abnormalities
Body weight (g) 72 h (male ICR mice; mouse, in vivo, po, 3 mg/kg): 29 g
Body weight (g) Pre-dose (male ICR mice; mouse, in vivo, po, 10 mg/kg): 25 g
mortality and adverse effects (male ICR mice; oral 3, 10 and 30 mg/kg, mice): Neither mortality nor notable adverse effects
Invasion of MDCK cells (%), of the original inoculum [1]: 1.6%
PhilA activation with hilC and/or rtsA as sole activators (HilC and RtsA): did not lead to a reduction of PhilA activation
Molecular Mass of HilD, Measured (HilD; HilD + C26 100 μM, theoretical dimer 70.4): 69.8 kDa
oligomerization state of HilD (HilD; equimolar C26 (100 μM)): no effect on the oligomerization state
formation of HilD-HilE heterodimers (HilD-HilE heterodimer): no effect on heterodimerization
TC50 cytotoxicity (HeLa cells): > 100 µM
